≈ marks a conversion by molar mass, not a printed value. Like-named read-outs stand apart in the source and are kept apart here.
Key:
[1] = mouse, microsomes
[2] = tested on: Vero green monkey-derived epithelial kidney cells; assay: Mammalian cytotoxicity in Vero cells; assay type: cell-based; details: for IC50: Chlorocebus sabaeus
[3] = target: M. smegmatis ATP synthase (Mycolicibacterium smegmatis, UniProt A0R205+A0R206); assay: Inhibition of mycobacterial ATP synthase; assay type: biochemical; details: for selectivity over the human enzyme: M. smegmatis vs human mitochondrial ATP synthase; for IC50: read-out: M. smeg ATPsynth IC50, M. smegmatis ATP synthase
[4] = tested on: M.tb strain H37Rv; assay: MIC against M.tb H37Rv under non-replicating (LORA) conditions; details: for MIC LORA: MIC90, Table 1; for MIC (µg/mL) LORA: MIC90, Table 2
[5] = tested on: M.tb strain H37Rv; assay: MIC against M.tb H37Rv under aerobic (replicating; MABA) conditions; assay type: cell-based, Mycobacterium tuberculosis; details: for MIC: Mycobacterium tuberculosis; for MIC MABA: MIC90, Table 1
[6] = human, microsomes
[7] = Microsomal clearance in mouse liver microsomes; note: unit not given here
[8] = Microsomal clearance in human liver microsomes; note: unit not given here
[9] = Stability in CDCl3 solution; assay type: physicochemical; details: over 1–2 days
Description: Note: The X = OMe compounds 8 and 9 were unstable in CDCl3 solution over 1–2 days.

[10] = MIC90, Table 1, read-out: MIC MABA

| Molecule | IC50 ([2]; Table 1) [µg/mL] | IC50 [3] [µM] | MIC LORA [4] [µg/mL] | MIC [5, 10] [µg/mL] | melting point [°C] | further results |
| --- | --- | --- | --- | --- | --- | --- |
| Cc1cc(Cl)ccc1-c1ccc(NC(=O)N2CCc3c(F)ccc(N4CCN(C)CC4)c3C2)nc1 [Compound 42, N-(5-(4-Chloro-2-methylphenyl)pyridin-2-yl)-5-fluoro-8-(4-methylpiperazin-1-yl)-3,4-dihydroisoquinoline-2(1H)-carboxamide] | 12 (≈ 24.3 µM) | 3.64 | 5.4 (≈ 10.9 µM) | 1.2 (≈ 2.43 µM) | 98 to 101 | MLM Clint [1]: 65; selectivity over the human enzyme [3]: 9.4 fold; HLM Clint [6]: 50 |
| 2-((5-(4-Chlorophenyl)pyridin-2-yl)methyl)-8-(4-methylpiperazin-1-yl)-5-methyl-1,2,3,4-tetrahydroisoquinoline [Compound 12] |  |  | 5.2 |  |  | IC50 VERO ([2]; Table 1): 14 µg/mL; MLM Clint [7]: 239; MIC (µg/mL) LORA [4]: 5.2 µg/mL; HLM Clint [8]: 92; MIC MABA [5]: 0.79 µg/mL; MIC (µg/mL) MABA ([5]; MIC90, Table 2): 0.79 µg/mL |
| COc1ccc(N2CCN(C)CC2)c2c1CCN(C(=O)Nc1ccc(-c3ccc(Cl)cc3C)cn1)C2 [Compound 35, N-(5-(4-chloro-2-methylphenyl)pyridin-2-yl)-5-methoxy-8-(4-methylpiperazin-1-yl)-3,4-dihydroisoquinoline-2(1H)-carboxamide] | 12 (≈ 23.7 µM) | 12.4 | 3.1 (≈ 6.13 µM) | 1.9 (≈ 3.75 µM) | 99 to 101 |  |
| N-(5-(3,5-bis(trifluoromethyl)phenyl)pyridin-2-yl)-5-methoxy-8-(4-methylpiperazin-1-yl)-3,4-dihydroisoquinoline-2(1H)-carboxamide [Compound 9] |  |  | 12 |  |  | IC50 VERO ([2]; Table 1): 19 µg/mL; MIC MABA [5]: 7.9 µg/mL; stability in CDCl3 solution [9]: unstable |
| Cc1ccc(N2CCN(C)CC2)c2c1CCN(C(=O)Nc1ccc(-c3cc(C(F)(F)F)cc(C(F)(F)F)c3)cn1)C2 [Compound 26, N-(5-(3,5-Bis(trifluoromethyl)phenyl)pyridin-2-yl)-5-methyl-8-(4-methylpiperazin-1-yl)-3,4-dihydroisoquinoline-2(1H)-carboxamide] | > 32 | 24.2 | 5.3 (≈ 9.18 µM) | 3.1 (≈ 5.37 µM) | 114 to 117 |  |
| CCc1ccc(N2CCN(C)CC2)c2c1CCN(C(=O)Nc1ccc(-c3ccc(C(F)(F)F)cc3)cn1)C2 [Compound 27, 5-Ethyl-8-(4-methylpiperazin-1-yl)-N-(5-(4-(trifluoromethyl)phenyl)pyridin-2-yl)-3,4-dihydroisoquinoline-2(1H)-carboxamide] | 12 (≈ 22.9 µM) | 4.2 | 0.9 (≈ 1.72 µM) | 1 (≈ 1.91 µM) |  | MLM Clint [1]: 810; HLM Clint [6]: 107 |
| CN1CCN(c2cccc3c2CN(C(=O)Cc2ccc(-c4ccc(Cl)cc4)cn2)CC3)CC1 [Compound 43, 2-(5-(4-Chlorophenyl)pyridin-2-yl)-1-(8-(4-methylpiperazin-1-yl)-3,4-dihydroisoquinolin-2(1H)-yl)ethan-1-one] | 19 (≈ 41.2 µM) |  | 20.3 (≈ 44 µM) | 14.1 (≈ 30.6 µM) | 49 to 52 |  |
| N-(5-(4-(tert-butyl)phenyl)pyridin-2-yl)-5-methyl-8-(4-methylpiperazin-1-yl)-3,4-dihydroisoquinoline-2(1H)-carboxamide [Compound 7] |  |  | 3.4 |  |  | IC50 VERO ([2]; Table 1): 18 µg/mL; MLM Clint [7]: 56; HLM Clint [8]: 41; MIC MABA [5]: 1.4 µg/mL |
| CN1CCN(c2cccc3c2CN(C(=O)c2ccc(-c4ccc(Cl)cc4)cn2)CC3)CC1 [Compound 19, (5-(4-Chlorophenyl)pyridin-2-yl)(8-(4-methylpiperazin-1-yl)-3,4-dihydroisoquinolin-2(1H)-yl)methanone] | 27 (≈ 60.4 µM) |  | 20 (≈ 44.7 µM) | 16 (≈ 35.8 µM) | 144 to 147 |  |
| COc1ccc(N2CCN(C)CC2)c2c1CCN(C(=O)Nc1ccc(-c3ccc(Cl)cc3Cl)cn1)C2 [Compound 36, N-(5-(2,4-Dichlorophenyl)pyridin-2-yl)-5-methoxy-8-(4-methylpiperazin-1-yl)-3,4-dihydroisoquinoline-2(1H)-carboxamide] | > 32 | 5.7 |  | 1.9 (≈ 3.61 µM) | 108 to 111 | MLM Clint [1]: 584; HLM Clint [6]: 48 |
| COc1ccc(N2CCN(C)CC2)c2c1CCN(C(=O)Nc1ccc(-c3ccc(C(F)(F)F)cc3Cl)cn1)C2 [Compound 34, N-(5-(2-Chloro-4-(trifluoromethyl)phenyl)pyridin-2-yl)-5-methoxy-8-(4-methylpiperazin-1-yl)-3,4-dihydroisoquinoline-2(1H)-carboxamide] | 12 (≈ 21.4 µM) |  | 3.2 (≈ 5.71 µM) | 3.6 (≈ 6.43 µM) | 61 to 64 |  |
| Cc1cc(Cl)ccc1-c1ccc(C(=O)N2CCc3cccc(N4CCN(C)CC4)c3C2)nc1 [Compound 18, (5-(4-Chloro-2-methylphenyl)pyridin-2-yl)(8-(4-methylpiperazin-1-yl)-3,4-dihydroisoquinolin-2(1H)-yl)methanone] | 20 (≈ 43.4 µM) |  | 13 (≈ 28.2 µM) | 11 (≈ 23.9 µM) | 132 to 135 |  |
| CSc1ccc(N2CCN(C)CC2)c2c1CCN(C(=O)Nc1ccc(-c3ccc(Cl)cc3C)cn1)C2 [Compound 40, N-(5-(4-Chloro-2-methylphenyl)pyridin-2-yl)-8-(4-methylpiperazin-1-yl)-5-(methylthio)-3,4-dihydroisoquinoline-2(1H)-carboxamide] | 13 (≈ 24.9 µM) |  | 2.0 (≈ 3.83 µM) | 1.9 (≈ 3.64 µM) | 111 to 114 |  |
| CN1CCN(c2cccc3c2CN(Cc2ccc(-c4ccc(Cl)cc4)cn2)CC3)CC1 [Compound 10, 2-((5-(4-Chlorophenyl)pyridin-2-yl)methyl)-8-(4-methylpiperazin-1-yl)-1,2,3,4-tetrahydroisoquinoline] | 16 (≈ 37 µM) | 16.6 | 16 (≈ 37 µM) | 1.8 (≈ 4.16 µM) |  | MLM Clint [1]: 238; selectivity over the human enzyme [3]: > 70 fold; HLM Clint [6]: 121 |
| Cc1cc(Cl)ccc1-c1ccc(CN2CCc3c(C)ccc(N4CCSCC4)c3C2)nc1 [Compound 54, 4-(2-((5-(4-Chloro-2-methylphenyl)pyridin-2-yl)methyl)-5-methyl-1,2,3,4-tetrahydroisoquinolin-8-yl)yhiomorpholine] |  |  |  |  | 133 to 135 | IC50 ([2]; Table 2): > 32 µg/mL; MIC (µg/mL) LORA [4]: 5.9 µg/mL (≈ 12.7 µM); MIC ([5]; MIC90, Table 2, read-out: MIC (µg/mL) MABA): 3.4 µg/mL (≈ 7.33 µM) |
| COc1ccc(N2CCN(C)CC2)c2c1CCN(C(=O)N1CCC(Oc3ccccc3C(F)(F)F)CC1)C2 [Compound 51, (5-Methoxy-8-(4-methylpiperazin-1-yl)-3,4-dihydroisoquinolin-2(1H)-yl)(4-(2-(trifluoromethyl)phenoxy)piperidin-1-yl)methanone] | 24 (≈ 45.1 µM) |  | 10.0 (≈ 18.8 µM) | 12 (≈ 22.5 µM) | 74 to 77 |  |
| COc1ccc(N2CCN(C)CC2)c2c1CCN(C(=O)Nc1ccc(-c3cncnc3)cn1)C2 [Compound 31, 5-Methoxy-8-(4-methylpiperazin-1-yl)-N-(5-(pyrimidin-5-yl)pyridin-2-yl)-3,4-dihydroisoquinoline-2(1H)-carboxamide] | > 32 |  | >32 | > 32 | 236 to 239 |  |
| COc1ccc(N2CCN(C)CC2)c2c1CCN(C(=O)Nc1ccc(-c3ccc(OC(F)(F)F)cc3)cn1)C2 [Compound 37, 5-Methoxy-8-(4-methylpiperazin-1-yl)-N-(5-(4-(trifluoromethoxy)phenyl)pyridin-2-yl)-3,4-dihydroisoquinoline-2(1H)-carboxamide] | 12 (≈ 22.2 µM) |  | 3.0 (≈ 5.54 µM) | 3.1 (≈ 5.72 µM) | 196 to 198 |  |
| CN1CCN(c2cccc3c2CN(C(=O)Nc2ccc(-c4ccc(OC(F)(F)F)cc4)cn2)CC3)CC1 [Compound 23, 8-(4-Methylpiperazin-1-yl)-N-(5-(4-(trifluoromethoxy)phenyl)pyridin-2-yl)-3,4-dihydroisoquinoline-2(1H)-carboxamide] | 14 (≈ 27.4 µM) | 12.1 | 3.9 (≈ 7.62 µM) | 3.6 (≈ 7.04 µM) |  | selectivity over the human enzyme [3]: > 80 fold |
| Cc1cc(Cl)ccc1-c1ccc(CC(=O)N2CCc3cccc(N4CCN(C)CC4)c3C2)nc1 [Compound 47] | 11 (≈ 23.2 µM) |  | 19.4 (≈ 40.8 µM) | 14 (≈ 29.5 µM) | 45 to 48 |  |
| Cc1ccc(N2CCN(C)CC2)c2c1CCN(C(=O)N1CCC(Oc3ccccc3C(F)(F)F)CC1)C2 [Compound 49, (5-Methyl-8-(4-methylpiperazin-1-yl)-3,4-dihydroisoquinolin-2(1H)-yl)(4-(2-(trifluoromethyl)phenoxy)piperidin-1-yl)methanone] | 11 (≈ 21.3 µM) | 12 | 7.3 (≈ 14.1 µM) | 7.7 (≈ 14.9 µM) |  |  |
| Cc1ccc(N2CCN(C)CC2)c2c1CCN(C(=O)N1CCC(Oc3ccc(OC(F)(F)F)cc3)CC1)C2 [Compound 48, (5-Methyl-8-(4-methylpiperazin-1-yl)-3,4-dihydroisoquinolin-2(1H)-yl)(4-(4-(trifluoromethoxy)phenoxy)piperidin-1-yl)methanone] | 19 (≈ 35.7 µM) |  | 3.9 (≈ 7.32 µM) | 6.4 (≈ 12 µM) |  | MLM Clint [1]: 40; HLM Clint [6]: 48 |

From paper PMC7721589, “Synthesis and structure-activity relationships for tetrahydroisoquinoline-based inhibitors of Mycobacterium tuberculosis” (Bioorganic & Medicinal Chemistry, 2020)
